Legend:
[1] = tested on: EM-2 (Chronic Myelogenous Leukemia); experiment: combination Emax (second highest fraction inhibited in the dose matrix, 72 h); higher = more inhibition; extreme values may be limits of the assay
Outline: (§1)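 Cell lines in DMEM/F12 or RPMI with 10% FBS were plated in 1536-well plates, held 24 hours at 37°C, 5% CO2, then given two-drug dose matrices for 72 hours (DMSO typically 0.2%). Viability was read by CellTiter-Glo 2.0 luminescence and scaled as inhibition from 0 (vehicle wells) to 1 (blank wells). Combination Emax is the second-highest inhibition in the matrix; Bliss excess is observed combination effect minus expected EA + EB − EA·EB, EA and EB being single-agent effects.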

[2] = tested on: TE-5 (Esophageal Squamous Cell Carcinoma); experiment: as above
Outline: as §1

[3] = tested on: KARPAS-620 (Plasma Cell Myeloma); experiment: as above
Outline: as §1

RH-1 (Ewing's Sarcoma) = experiment: as above
Outline: as §1

[4] = tested on: SUIT-2 (Pancreatic Carcinoma); experiment: as above
Outline: as §1

[5] = tested on: U-266 (Plasma Cell Myeloma); experiment: as above
Outline: as §1

ES7 (Ewing's Sarcoma) [6] = experiment: as above
Outline: as §1

[7] = tested on: KARPAS-1106P (B-Cell Non-Hodgkin's Lymphoma); experiment: as above
Outline: as §1

[8] = tested on: NCI-H1694 (Small Cell Lung Carcinoma); experiment: as above
Outline: as §1

[9] = tested on: DB (B-Cell Non-Hodgkin's Lymphoma); experiment: Bliss excess, mean over the matrix (fraction); higher = more synergy
Outline: as §1

[10] = tested on: OCI-AML2 (Acute Myeloid Leukemia); experiment: as above
Outline: as §1

J82 (Bladder Carcinoma) = experiment: as above
Outline: as §1

[11] = tested on: SW1990 (Pancreatic Carcinoma); experiment: as above
Outline: as §1

[12] = tested on: SW1783 (Low Grade Glioma); experiment: as above
Outline: as §1

[13] = tested on: COR-L95 (Small Cell Lung Carcinoma); experiment: as above
Outline: as §1

[14] = tested on: TGBC24TKB (Biliary Tract Carcinoma); experiment: as above
Outline: as §1

ES7 (Ewing's Sarcoma) [15] = experiment: as above
Outline: as §1

NCI-H2369 (Mesothelioma) = experiment: as above
Outline: as §1

[16] = tested on: KARPAS-1106P (B-Cell Non-Hodgkin's Lymphoma); experiment: as above
Outline: as §1

[17] = tested on: NCI-H1694 (Small Cell Lung Carcinoma); experiment: as above
Outline: as §1
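Wherever Bliss excess, mean over the matrix is given: after 72 h of two-drug dosing.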

| Compound | combination Emax [1] | combination Emax [2] | combination Emax [3] | combination Emax (RH-1 (Ewing's Sarcoma)) | combination Emax [4] | combination Emax [5] | combination Emax (ES7 (Ewing's Sarcoma) [6]) | combination Emax [7] | combination Emax [8] | Bliss excess [9] | Bliss excess [10] | Bliss excess (J82 (Bladder Carcinoma)) | Bliss excess [11] | Bliss excess [12] | Bliss excess [13] | Bliss excess [14] | Bliss excess (ES7 (Ewing's Sarcoma) [15]) | Bliss excess (NCI-H2369 (Mesothelioma)) | Bliss excess [16] | Bliss excess [17] |
| --- | --- | --- | --- | --- | --- | --- | --- | --- | --- | --- | --- | --- | --- | --- | --- | --- | --- | --- | --- | --- |
| NC1(C(=O)N[C@@H](CCO)c2ccc(Cl)cc2)CCN(c2ncnc3[nH]ccc23)CC1 [Capivasertib] + CC(C)n1c(=O)n(C)c2cnc3cc(F)c(-c4ccc(OCCCN5CCCCC5)nc4)cc3c21 [AZD1390] (first compound max 10 µM, 7x7, partner max 0.3 µM) | 0.426 | 0.303 | 0.775 | 0.333 | 0.139 | 0.139 | 0.446 | 0.392 | 0.223 | -0.0494 | -0.0448 | -0.0659 | -0.05 | -0.0625 | -0.0425 | -0.0261 | -0.0471 | -0.0104 | -0.0004 | -0.0081 |
| CN(CCO)CC[C@H](CSc1ccccc1)Nc1ccc(S(=O)(=O)NC(=O)c2ccc(N3CCC([C@@H](O)c4ccccc4-c4ccc(Cl)cc4)CC3)cc2)cc1S(=O)(=O)C(F)(F)F [AZD4320] + CCN(CCO)CCCOc1ccc2c(Nc3cc(CC(=O)Nc4cccc(F)c4)[nH]n3)ncnc2c1 [AZD2811] (first compound max 1 µM, 7x7, partner max 1 µM) | 0.985 | 0.478 | 1 | 0.913 | 0.089 | 0.718 | 1 | 0.215 | 0.94 | 0.0983 | 0.0189 | -0.0304 | -0.0214 | -0.0701 | 0.0522 | 0.0337 | 0.0493 | 0.0005 | 0.0326 | 0.169 |
| COc1cccc(OCCCN)c1-c1cc(Nc2cnc(C#N)cn2)n[nH]1 [Prexasertib] + CN(C)CCCOc1ccc(-c2ccc3ncc4c(c3c2)n(C2CCOCC2)c(=O)n4C)cn1 [AZD0156] (first compound max 1 µM, 7x7, partner max 1 µM) | 0.986 | 0.543 | 0.896 | 1 | 0.682 | 0.728 | 0.838 | 0.919 | 0.794 | 0.0289 | -0.0276 | 0.0036 | -0.0247 | -0.0111 | -0.0723 | -0.0414 | -0.0329 | -0.0016 | -0.0308 | -0.0433 |
| CC(=O)c1c(C)c2cnc(Nc3ccc(N4CCNCC4)cn3)nc2n(C2CCCC2)c1=O [Palbociclib] + Cc1c2c(nn1C)CSCc1cc(n(C)n1)CSc1cc(c3ccccc3c1)OCCCc1c(C(=O)O)n(C)c3c-2c(Cl)ccc13 [AZD5991] (first compound max 10 µM, 7x7, partner max 1 µM) | 0.484 | 0.157 | 1 | 0.853 | 0.445 | 0.872 | 0.714 | 0.897 | 0.667 | 0.0577 | 0.004 | -0.0174 | -0.0427 | -0.0248 | -0.0112 | 0.0597 | -0.005 | -0.0593 | -0.0645 | -0.073 |
| COc1cccc(OCCCN)c1-c1cc(Nc2cnc(C#N)cn2)n[nH]1 [Prexasertib] + C[C@@H]1COCCN1C2=NC(=NC(=C2)C3(CC3)[S@](=N)(=O)C)C4=C5C=CNC5=NC=C4 [AZD6738] (first compound max 1 µM, 7x7, partner max 10 µM) | 0.994 | 0.548 | 0.856 | 1 | 0.747 | 0.65 | 0.855 | 0.905 | 0.823 | -0.0569 | -0.021 | -0.0198 | -0.0446 | 0.0261 | 0.0074 | -0.0038 | -0.0416 | -0.0274 | -0.0714 | -0.06 |
| Cc1c2c(nn1C)CSCc1cc(n(C)n1)CSc1cc(c3ccccc3c1)OCCCc1c(C(=O)O)n(C)c3c-2c(Cl)ccc13 [AZD5991] + CN(C)CCCOc1ccc(-c2ccc3ncc4c(c3c2)n(C2CCOCC2)c(=O)n4C)cn1 [AZD0156] (first compound max 1 µM, 7x7, partner max 1 µM) | 0.394 | 0.266 | 1 | 0.666 | 0.217 | 0.919 | 0.726 | 0.925 | 0.98 | -0.0093 | -0.0647 | 0.0127 | 0.0159 | -0.0074 | -0.0328 | -0.0044 | 0.0036 | 0.0002 | -0.0352 | 0.0033 |
| C[C@@H](c1ccc2nccn2c1)n1nnc2ncc(-c3cnn(C)c3)nc21 [Savolitinib] + Cc1c2c(nn1C)CSCc1cc(n(C)n1)CSc1cc(c3ccccc3c1)OCCCc1c(C(=O)O)n(C)c3c-2c(Cl)ccc13 [AZD5991] (first compound max 1 µM, 7x7, partner max 1 µM) | 0.364 | 0.147 | 0.997 | 0.518 | 0.208 | 0.859 | 0.554 | 0.734 | 0.371 | 0.0299 | -0.0167 | -0.0717 | -0.0306 | -0.0133 | -0.0171 | -0.029 | -0.017 | -0.0527 | -0.0518 | 0.0027 |
| COc1cccc(OCCCN)c1-c1cc(Nc2cnc(C#N)cn2)n[nH]1 [Prexasertib] + O=C(c1cc(Cc2n[nH]c(=O)c3ccccc23)ccc1F)N1CCN(C(=O)C2CC2)CC1 [Olaparib] (first compound max 1 µM, 7x7, partner max 10 µM) | 1 | 0.521 | 0.802 | 1 | 0.682 | 0.749 | 0.976 | 0.897 | 0.797 | -0.0327 | -0.0242 | 0.033 | -0.0617 | -0.0344 | -0.121 | -0.0191 | 0.0058 | -0.0284 | -0.0936 | -0.0596 |
| Cc1c2c(nn1C)CSCc1cc(n(C)n1)CSc1cc(c3ccccc3c1)OCCCc1c(C(=O)O)n(C)c3c-2c(Cl)ccc13 [AZD5991] + C[C@@H]1COCCN1C2=NC(=NC(=C2)C3(CC3)[S@](=N)(=O)C)C4=C5C=CNC5=NC=C4 [AZD6738] (first compound max 1 µM, 7x7, partner max 10 µM) | 0.98 | 0.494 | 1 | 0.956 | 0.424 | 0.95 | 0.852 | 0.965 | 1 | 0.0042 | 0.0168 | 0.0009 | -0.0062 | 0.0272 | 0.0482 | -0.006 | 0.0521 | 0.0442 | 0.0182 | 0.0064 |
| Cc1cc2ncnn2cc1Nc1ncc2c(n1)n(C1CCOCC1)c(=O)n2C [AZD7648] + CCN(CCO)CCCOc1ccc2c(Nc3cc(CC(=O)Nc4cccc(F)c4)[nH]n3)ncnc2c1 [AZD2811] (first compound max 10 µM, 7x7, partner max 1 µM) | 0.878 | 0.394 | 0.554 | 0.952 | 0.0971 | 0.331 | 0.855 | 0.526 | 0.273 | 0.0438 | -0.0004 | -0.0488 | -0.0199 | 0.0063 | -0.003 | -0.0157 | -0.0538 | 0.0252 | 0.0642 | 0.0483 |
| CN(CCO)CC[C@H](CSc1ccccc1)Nc1ccc(S(=O)(=O)NC(=O)c2ccc(N3CCC([C@@H](O)c4ccccc4-c4ccc(Cl)cc4)CC3)cc2)cc1S(=O)(=O)C(F)(F)F [AZD4320] + C[C@@H]1COCCN1C2=NC(=NC(=C2)C3(CC3)[S@](=N)(=O)C)C4=C5C=CNC5=NC=C4 [AZD6738] (first compound max 1 µM, 7x7, partner max 10 µM) | 0.988 | 0.77 | 1 | 0.963 | 0.522 | 0.834 | 1 | 0.849 | 0.974 | 0.0249 | 0.0397 | -0.0144 | 0.0112 | -0.106 | -0.0234 | -0.0245 | 0.0638 | 0.0246 | -0.0301 | 0.0238 |
| Cc1c2c(nn1C)CSCc1cc(n(C)n1)CSc1cc(c3ccccc3c1)OCCCc1c(C(=O)O)n(C)c3c-2c(Cl)ccc13 [AZD5991] + Cn1cnc2c(F)c(Nc3ccc(Br)cc3Cl)c(C(=O)NOCCO)cc21 [Selumetinib] (first compound max 1 µM, 7x7, partner max 3 µM) | 0.609 | 0.287 | 1 | 0.52 | 0.285 | 0.985 | 0.759 | 0.979 | 0.986 | 0.0063 | 0.0107 | -0.0073 | -0.0222 | -0.0782 | -0.039 | 0.0488 | 0.0375 | 0.0081 | 0.0497 | -0.0048 |
| COc1cccc(OCCCN)c1-c1cc(Nc2cnc(C#N)cn2)n[nH]1 [Prexasertib] + Cc1cc2ncnn2cc1Nc1ncc2c(n1)n(C1CCOCC1)c(=O)n2C [AZD7648] (first compound max 1 µM, 7x7, partner max 10 µM) | 0.99 | 0.526 | 0.817 | 1 | 0.739 | 0.713 | 0.876 | 0.909 | 0.808 | -0.0319 | -0.0211 | 0.0089 | -0.0317 | -0.0281 | -0.102 | -0.0412 | -0.0483 | -0.0252 | -0.0595 | -0.0259 |
| NC1(C(=O)N[C@@H](CCO)c2ccc(Cl)cc2)CCN(c2ncnc3[nH]ccc23)CC1 [Capivasertib] + CC(=O)c1c(C)c2cnc(Nc3ccc(N4CCNCC4)cn3)nc2n(C2CCCC2)c1=O [Palbociclib] (first compound max 10 µM, 7x7, partner max 10 µM) | 0.384 | 0.359 | 0.781 | 0.391 | 0.552 | 0.254 | 0.655 | 0.761 | 0.141 | 0.0453 | 0.0134 | -0.0134 | -0.0404 | -0.0263 | -0.0565 | -0.0216 | 0.0092 | 0.0133 | -0.0168 | -0.0472 |
